Source: PMC9850771 (RSC Advances, 2023)

Assays:
Type in all cases: cell-based
[1] = tested on: MDA-MB-468; test: MTT cytotoxicity assay, breast cancer cell line MDA-MB-468; settings: Homo sapiens, MDA-MB-468, 24 h, read-out: IC50 MDA-MB-468
[2] = tested on: MCF7; test: MTT cytotoxicity assay, breast cancer cell line MCF7; settings: Homo sapiens; for IC50: MCF7, 24 h, read-out: IC50 MCF7
[3] = tested on: A375; test: MTT cytotoxicity assay, melanoma cell line A375; settings: Homo sapiens, A-375, 24 h, read-out: IC50 A375

Structure (SMILES)	IC50 [1] [µM]	IC50 [2] [µM]	IC50 [3] [µM]	viability at 300 µM ([2]; MCF7, read-out: viability value, MCF-7) [%]
Cn1c(=O)c2c(nc(OCc3cn(CCCc4ccccc4)nn3)n2C)n(C)c1=O [Compound 22a, 1,3,7-Trimethyl-8-((1-(3-phenylpropyl)-1H-1,2,3-triazol-4-yl)methoxy)-1H-purine-2,6(3H,7H)-dione]	256 ± 1.4	268 ± 0.2	179 ± 1.2	–
Cn1c(=O)c2c(nc(OCc3cn(CCc4ccccc4)nn3)n2C)n(C)c1=O [Compound 22b, 1,3,7-Trimethyl-8-((1-phenethyl-1H-1,2,3-triazol-4-yl)methoxy)-1H-purine-2,6(3H,7H)-dione]	> 300	> 300	> 300	–
Cn1c(=O)c2c(nc(OCc3cn(Cc4ccccc4)nn3)n2C)n(C)c1=O [Compound 22c, 8-((1-Benzyl-1H-1,2,3-triazol-4-yl)methoxy)-1,3,7-trimethyl-1H-purine-2,6(3H,7H)-dione]	> 300	> 300	< 12.5	–
Cc1ccc(Cn2cc(COc3nc4c(c(=O)n(C)c(=O)n4C)n3C)nn2)cc1 [Compound 22d, 1,3,7-Trimethyl-8-((1-(4-methylbenzyl)-1H-1,2,3-triazol-4-yl)methoxy)-3,7-dihydro-1H-purine-2,6-dione]	> 300	> 300	194 ± 1.6	–
Cn1c(=O)c2c(nc(OCc3cn(C(c4ccccc4)c4ccccc4)nn3)n2C)n(C)c1=O [Compound 22e, 8-((1-Benzhydryl-1H-1,2,3-triazol-4-yl)methoxy)-1,3,7-trimethyl-1H-purine-2,6(3H,7H)-dione]	> 300	284 ± 0.2	286 ± 0.2	–
CCCCCn1cc(COc2nc3c(c(=O)n(C)c(=O)n3C)n2C)nn1 [Compound 22f, 1,3,7-Trimethyl-8-((1-pentyl-1H-1,2,3-triazol-4-yl)methoxy)-1H-purine-2,6(3H,7H)-dione]	126 ± 0.6	136 ± 0.2	160 ± 1.5	17 ± 3
CCCCCCn1cc(COc2nc3c(c(=O)n(C)c(=O)n3C)n2C)nn1 [Compound 22g, 8-((1-Hexyl-1H-1,2,3-triazol-4-yl)methoxy)-1,3,7-trimethyl-1H-purine-2,6(3H,7H)-dione]	> 300	> 300	> 300	–
CCCCCCCn1cc(COc2nc3c(c(=O)n(C)c(=O)n3C)n2C)nn1 [Compound 22h, 8-((1-Heptyl-1H-1,2,3-triazol-4-yl)methoxy)-1,3,7-trimethyl-1H-purine-2,6(3H,7H)-dione]	> 300	> 300	> 300	–
CCCCCCCCn1cc(COc2nc3c(c(=O)n(C)c(=O)n3C)n2C)nn1 [Compound 22i, 1,3,7-Trimethyl-8-((1-octyl-1H-1,2,3-triazol-4-yl)methoxy)-1H-purine-2,6(3H,7H)-dione]	175 ± 1.4	165 ± 1.8	146 ± 1.5	–
CCCCCCCCCCn1cc(COc2nc3c(c(=O)n(C)c(=O)n3C)n2C)nn1 [Compound 22j, 8-((1-Decyl-1H-1,2,3-triazol-4-yl)methoxy)-1,3,7-trimethyl-1H-purine-2,6(3H,7H)-dione]	> 300	> 300	> 300	–
CN(Cc1cnc2nc(N)nc(N)c2n1)c1ccc(C(=O)N[C@@H](CCC(=O)O)C(=O)O)cc1 [MTX, Methotrexate, reference compound]	37 ± 1.9	30 ± 2.9	32 ± 2.2	–
